The text below walks through data of patent publication US10294272B2, “Peptides with antagonistic activities against natural CXCR4” (Pharis Biotec GmbH, priority 2013, dated 2019).

Positions of bridges follow the written chain, without caps; N, C: chain ends. Residues, ends and D or L forms follow the SMILES beside them. Chains are numbered I, II in the order given. No end group written: not given here.

In this experiment the test system is X4 tropic HIV-1 NL4-3. Conditions: blocking X4 tropic HIV-1 NL4-3 infection. As for the experimental part:
Antiviral screening was performed using the X4 HIV-1 NL4-3 molecular clone.
HIV-1, HIV-2 and SIV molecular clones differing in coreceptor tropism were generated by transient transfection of 293T cells with proviral DNA by the calcium phosphate method (CalPhos™ Mammalian Transfection Kit, Clon-tech). After overnight incubation, the transfection mixture was replaced by DMEM medium supplemented with 10% FCS, and virus stocks were harvested 48 hrs post-transfection. Subsequently, the culture supernatant was centrifuged for 5 min at 3000 rpm to remove cell debris. The resulting virus stock was quantified by p24 (HIV) or p27 (SIV) antigen ELISA. Virus stocks were either used immediately or stored in aliquots at −80° C.
TZM-bl reporter cells containing the LacZ reporter gene under the control of the HIV-1 promoter were seeded in 96-well F-bottom microtiter plates (Greiner Bio-One). On the following day, the cells were preincubated with various dilutions of the peptide of SEQ ID NO 16 or its derivatives for 1 hour and subsequently infected with HIV-1, HIV-2, and SIV. Infection rates were determined after 2 days using the one-step Tropix Gal-Screen Kit, as recommended by the manufacturer.
In turn, `CC[C@H](C)[C@H](N)C(=O)N[C@H](C(=O)N[C@@H](CCCNC(=N)N)C(=O)N[C@@H](Cc1ccc(O)cc1)C(=O)N[C@@H](CO)C(=O)N[C@@H](CCCCN)C(=O)N[C@@H](CCCCN)C(=O)N[C@H](C(=O)N1CCC[C@H]1C(=O)N[C@@H](CCC(N)=O)C(=O)N[C@@H](CSSC[C@H](NC(=O)[C@H](CCC(N)=O)NC(=O)[C@@H]1CCCN1C(=O)[C@@H](NC(=O)[C@H](CCCCN)NC(=O)[C@H](CCCCN)NC(=O)[C@H](CO)NC(=O)[C@H](Cc1ccc(O)cc1)NC(=O)[C@H](CCCNC(=N)N)NC(=O)[C@@H](NC(=O)[C@@H](N)[C@@H](C)CC)C(C)C)C(C)C)C(=O)O)C(=O)O)C(C)C)C(C)C` [408I-418 SC x2, (IVRYSKKVPQC)2] (I: H-IVRYSKKVPQC-OH / II: H-IVRYSKKVPQC-OH; disulfide I:11-II:11; N-terminus and C-terminus assumed) showed an IC50 of 390 nM. Consider `CC[C@H](C)[C@H](N)C(=O)N[C@H](C(=O)N[C@@H](CCCNC(=N)N)C(=O)N[C@@H](Cc1ccc(O)cc1)C(=O)N[C@H](C(=O)N[C@@H](CCCCN)C(=O)N[C@@H](CSSC[C@H](NC(=O)[C@H](CCCCN)NC(=O)[C@@H](NC(=O)[C@H](Cc1ccc(O)cc1)NC(=O)[C@H](CCCNC(=N)N)NC(=O)[C@@H](NC(=O)[C@@H](N)[C@@H](C)CC)C(C)C)[C@@H](C)O)C(=O)N[C@H](C(=O)N1CCC[C@H]1C(=O)N[C@@H](CCC(N)=O)C(=O)N[C@H](C(=O)N[C@@H](CO)C(=O)O)C(C)C)C(C)C)C(=O)N[C@H](C(=O)N1CCC[C@H]1C(=O)N[C@@H](CCC(N)=O)C(=O)N[C@H](C(=O)N[C@@H](CO)C(=O)O)C(C)C)C(C)C)[C@@H](C)O)C(C)C` [408I-419 K414C x2, (IVRYTKCVPQVS)2] (I: H-IVRYTKCVPQVS-OH / II: H-IVRYTKCVPQVS-OH; disulfide I:7-II:7; N-terminus and C-terminus assumed), for which the IC50 is 1050 nM. For `CC[C@H](C)[C@H](N)C(=O)N[C@H](C(=O)N[C@@H](CCCNC(=N)N)C(=O)N[C@@H](Cc1ccc(O)cc1)C(=O)N[C@H](C(=O)N[C@@H](CCCCN)C(=O)N[C@@H](CCCCN)C(=O)N[C@H](C(=O)N1CCC[C@H]1C(=O)N[C@@H](CCC(N)=O)C(=O)N[C@@H](CSSC[C@H](NC(=O)[C@H](CCC(N)=O)NC(=O)[C@@H]1CCCN1C(=O)[C@@H](NC(=O)[C@H](CCCCN)NC(=O)[C@H](CCCCN)NC(=O)[C@@H](NC(=O)[C@H](Cc1ccc(O)cc1)NC(=O)[C@H](CCCNC(=N)N)NC(=O)[C@@H](NC(=O)[C@@H](N)[C@@H](C)CC)C(C)C)[C@@H](C)O)C(C)C)C(=O)N[C@@H](CO)C(=O)O)C(=O)N[C@@H](CO)C(=O)O)C(C)C)[C@@H](C)O)C(C)C` [408I-419 V418C x2, (IVRYTKKVPQCS)2] (I: H-IVRYTKKVPQCS-OH / II: H-IVRYTKKVPQCS-OH; disulfide I:11-II:11; N-terminus and C-terminus assumed), half-maximal inhibition (IC50) was put at 460 nM. `CC[C@H](C)[C@H](N)C(=O)N[C@H](C(=O)N[C@@H](CCCNC(=N)N)C(=O)N[C@@H](Cc1c[nH]c2ccccc12)C(=O)N[C@H](C(=O)N[C@@H](CCCCN)C(=O)N[C@@H](CCCCN)C(=O)N[C@H](C(=O)N1CCC[C@H]1C(=O)N[C@@H](CCC(N)=O)C(=O)N[C@H](C(=O)N[C@@H](CSSC[C@H](NC(=O)[C@@H](NC(=O)[C@H](CCC(N)=O)NC(=O)[C@@H]1CCCN1C(=O)[C@@H](NC(=O)[C@H](CCCCN)NC(=O)[C@H](CCCCN)NC(=O)[C@@H](NC(=O)[C@H](Cc1c[nH]c2ccccc12)NC(=O)[C@H](CCCNC(=N)N)NC(=O)[C@@H](NC(=O)[C@@H](N)[C@@H](C)CC)C(C)C)[C@@H](C)O)C(C)C)C(C)C)C(=O)O)C(=O)O)C(C)C)C(C)C)[C@@H](C)O)C(C)C` [408I-419 WC01_x2, (IVRWTKKVPQVC)2] (I: H-IVRWTKKVPQVC-OH / II: H-IVRWTKKVPQVC-OH; disulfide I:12-II:12; N-terminus and C-terminus assumed) displayed an IC50 of 400 nM. Then `CC[C@H](C)[C@H](N)C(=O)N[C@H](C(=O)N[C@@H](CCCNC(=N)N)C(=O)N[C@@H](Cc1c[nH]c2ccccc12)C(=O)N[C@H](C(=O)N[C@@H](CSSC[C@H](NC(=O)[C@@H](NC(=O)[C@H](Cc1c[nH]c2ccccc12)NC(=O)[C@H](CCCNC(=N)N)NC(=O)[C@@H](NC(=O)[C@@H](N)[C@@H](C)CC)C(C)C)[C@@H](C)O)C(=O)N[C@@H](CCCCN)C(=O)N[C@H](C(=O)N1CCC[C@H]1C(=O)N[C@@H](CCC(N)=O)C(=O)N[C@H](C(=O)N[C@@H](CO)C(=O)O)C(C)C)C(C)C)C(=O)N[C@@H](CCCCN)C(=O)N[C@H](C(=O)N1CCC[C@H]1C(=O)N[C@@H](CCC(N)=O)C(=O)N[C@H](C(=O)N[C@@H](CO)C(=O)O)C(C)C)C(C)C)[C@@H](C)O)C(C)C` [408I-419 WC02 x2, (IVRWTCKVPQVS)2] (I: H-IVRWTCKVPQVS-OH / II: H-IVRWTCKVPQVS-OH; disulfide I:6-II:6; N-terminus and C-terminus assumed), with 320 nM; and `CC[C@H](C)[C@H](N)C(=O)N[C@H](C(=O)N[C@@H](CCCNC(=N)N)C(=O)N[C@@H](Cc1c[nH]c2ccccc12)C(=O)N[C@@H](CSSC[C@H](NC(=O)[C@H](Cc1c[nH]c2ccccc12)NC(=O)[C@H](CCCNC(=N)N)NC(=O)[C@@H](NC(=O)[C@@H](N)[C@@H](C)CC)C(C)C)C(=O)N[C@@H](CCCCN)C(=O)N[C@@H](CCCCN)C(=O)N[C@H](C(=O)N1CCC[C@H]1C(=O)N[C@@H](CCC(N)=O)C(=O)N[C@H](C(=O)N[C@@H](CO)C(=O)O)C(C)C)C(C)C)C(=O)N[C@@H](CCCCN)C(=O)N[C@@H](CCCCN)C(=O)N[C@H](C(=O)N1CCC[C@H]1C(=O)N[C@@H](CCC(N)=O)C(=O)N[C@H](C(=O)N[C@@H](CO)C(=O)O)C(C)C)C(C)C)C(C)C` [408I-419 WC03 x2, (IVRWCKKVPQVS)2] (I: H-IVRWCKKVPQVS-OH / II: H-IVRWCKKVPQVS-OH; disulfide I:5-II:5; N-terminus and C-terminus assumed), with 600 nM. `CC[C@H](C)[C@H](N)C(=O)N[C@H](C(=O)N[C@@H](CCCNC(=N)N)C(=O)N[C@@H](Cc1c[nH]c2ccccc12)C(=O)N[C@@H](CO)C(=O)N[C@@H](CCCCN)C(=O)N[C@@H](CCCCN)C(=O)N[C@H](C(=O)N1CCC[C@H]1C(=O)N[C@@H](CCC(N)=O)C(=O)N[C@@H](CSSC[C@H](NC(=O)[C@H](CCC(N)=O)NC(=O)[C@@H]1CCCN1C(=O)[C@@H](NC(=O)[C@H](CCCCN)NC(=O)[C@H](CCCCN)NC(=O)[C@H](CO)NC(=O)[C@H](Cc1c[nH]c2ccccc12)NC(=O)[C@H](CCCNC(=N)N)NC(=O)[C@@H](NC(=O)[C@@H](N)[C@@H](C)CC)C(C)C)C(C)C)C(=O)N[C@@H](CO)C(=O)O)C(=O)N[C@@H](CO)C(=O)O)C(C)C)C(C)C` [408I-419 WSC01 x2, (IVRWSKKVPQCS)2] (I: H-IVRWSKKVPQCS-OH / II: H-IVRWSKKVPQCS-OH; disulfide I:11-II:11; N-terminus and C-terminus assumed) displayed an IC50 of 180 nM. Take `CC[C@H](C)[C@H](N)C(=O)N[C@H](C(=O)N[C@@H](CCCNC(=N)N)C(=O)N[C@@H](Cc1c[nH]c2ccccc12)C(=O)N[C@@H](CO)C(=O)N[C@@H](CCCCN)C(=O)N[C@@H](CCCCN)C(=O)N[C@H](C(=O)N1CCC[C@H]1C(=O)N[C@@H](CSSC[C@H](NC(=O)[C@@H]1CCCN1C(=O)[C@@H](NC(=O)[C@H](CCCCN)NC(=O)[C@H](CCCCN)NC(=O)[C@H](CO)NC(=O)[C@H](Cc1c[nH]c2ccccc12)NC(=O)[C@H](CCCNC(=N)N)NC(=O)[C@@H](NC(=O)[C@@H](N)[C@@H](C)CC)C(C)C)C(C)C)C(=O)N[C@H](C(=O)N[C@@H](CO)C(=O)O)C(C)C)C(=O)N[C@H](C(=O)N[C@@H](CO)C(=O)O)C(C)C)C(C)C)C(C)C` [408I-419 WSC02 x2, (IVRWSKKVPCVS)2] (I: H-IVRWSKKVPCVS-OH / II: H-IVRWSKKVPCVS-OH; disulfide I:10-II:10): 120 nM corresponded to half-maximal inhibition (IC50).

As to “IVHYTKKVPQVS [408I-419 R410H, IVHYTKKVPQVS]”, the IC50 is above 100000 nM. The compound “IVKYTKKVPQVS [408I-419 R410K, IVKYTKKVPQVS]” returned an IC50 above 100000 nM. The figure for “IVRFTKKVPQVS [408I-419 Y411F, IVRFTKKVPQVS]” is 3890 nM; for “IVRSTKKVPQVS [408I-419 Y411S, IVRSTKKVPQVS]” it is above 100000 nM. Then “IVRWCKKVPQVS [408I-419 WC03, IVRWCKKVPQVS]”, with 1820 nM; and “IVRWSKKVCQVS [408I-419 WSC03, IVRWSKKVCQVS]”, with 1510 nM; and “IVRWSKKVPCVS [408I-419 WSC02, IVRWSKKVPCVS]”, with 310 nM. Compound “IVRWSKKVPQCS [408I-419 WSC01, IVRWSKKVPQCS]” gave an IC50 of 870 nM. Then “IVRWTCKVPQVS [408I-419 WCO2, IVRWTCKVPQVS]”, with 2100 nM; and “IVRWTKKVPQVC [408I-419 WC01, IVRWTKKVPQVC]”, with 1650 nM. In the case of “IVRWTKKVPQVS [408I-419 Y411W, IVRWTKKVPQVS]”, the midpoint of inhibition, the IC50, lay at 1540 nM. Then IVRYSKKVPQC [408I-418 SC, IVRYSKKVPQC], with 2940 nM. As to “IVRYSKKVPQVS [408I-419 T412S, IVRYSKKVPQVS]”, the IC50 worked out at 2090 nM. The figure for “IVRYTKCVPQVS [408I-419 K414C, IVRYTKCVPQVS]” is 5870 nM. Consider “IVRYTKKVPQCS [408I-419 V418C, IVRYTKKVPQCS]”, for which the concentration for half-maximal inhibition (IC50) worked out at 3690 nM. Then “IVRYTKKVPQVS [Derivative 408I-419, IVRYTKKVPQVS]”, with 2480 nM; and LARYTKKV [408-415-V409A, LARYTKKV], with 32900 nM; and “LLVRYTKKVPQVS [Derivative 407-419, LLVRYTKKVPQVS]”, with 11100 nM.

The term IC50 denotes the concentration that gives 50% inhibition.
